Drawing on US7507860B2 (Pfizer Inc., priority 2004, dated 2009), this text covers IC50 for 16 compounds.

One test has as its target T1, androgen receptor (Homo sapiens, UniProt P10275).
T1 sequence (P10275 1-920 Q868H): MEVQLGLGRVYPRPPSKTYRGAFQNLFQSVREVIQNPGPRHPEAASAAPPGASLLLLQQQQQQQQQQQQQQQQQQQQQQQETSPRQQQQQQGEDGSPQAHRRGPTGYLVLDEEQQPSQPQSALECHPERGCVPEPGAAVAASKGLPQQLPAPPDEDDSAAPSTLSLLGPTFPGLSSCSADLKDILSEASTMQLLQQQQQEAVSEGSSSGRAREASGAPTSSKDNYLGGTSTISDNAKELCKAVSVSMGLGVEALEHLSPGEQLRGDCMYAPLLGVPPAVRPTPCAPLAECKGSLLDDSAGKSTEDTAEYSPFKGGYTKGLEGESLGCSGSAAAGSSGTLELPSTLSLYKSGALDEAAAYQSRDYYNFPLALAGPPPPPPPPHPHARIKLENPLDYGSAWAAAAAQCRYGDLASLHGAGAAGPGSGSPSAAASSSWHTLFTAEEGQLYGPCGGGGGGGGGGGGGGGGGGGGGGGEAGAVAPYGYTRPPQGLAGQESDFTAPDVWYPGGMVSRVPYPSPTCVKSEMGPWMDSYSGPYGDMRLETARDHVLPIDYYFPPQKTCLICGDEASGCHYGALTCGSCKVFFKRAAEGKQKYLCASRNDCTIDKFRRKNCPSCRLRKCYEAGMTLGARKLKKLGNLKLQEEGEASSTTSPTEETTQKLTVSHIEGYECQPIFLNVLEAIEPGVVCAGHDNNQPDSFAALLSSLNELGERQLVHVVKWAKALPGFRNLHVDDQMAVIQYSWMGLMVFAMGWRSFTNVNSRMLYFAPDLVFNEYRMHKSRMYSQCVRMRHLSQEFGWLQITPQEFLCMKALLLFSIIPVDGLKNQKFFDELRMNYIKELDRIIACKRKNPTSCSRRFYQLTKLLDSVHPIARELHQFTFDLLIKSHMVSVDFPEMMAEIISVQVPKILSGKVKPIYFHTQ
In words: AR antagonist cell assay (MDA-MB453-MMTV clone 54-19 luciferase reporter, 100 pM DHT). It counts as cell-based. The method in brief:
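MDA-MB453 cells stably carrying an MMTV-ARE firefly luciferase reporter were plated overnight at 10,000/well in phenol-red-free, charcoal-stripped serum medium. Cells were stimulated with 100 pM DHT (final) for 17 hr at 37 °C, and AR antagonism was read as luciferase signal; values are means of multiple tests.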
For orientation: Reporter assays use an easily measured gene product as a stand-in for the process of interest.

Test [1] addresses T2, human androgen receptor (hAR) (Homo sapiens, UniProt P10275).
T2 construct: made in house; host or cells: baculovirus/Sf9 insect cells (crude extract)
T2 sequence (P10275 1-920): T1 sequence (P10275 1-920 Q868H) with H868Q
In words: Competitive binding analysis on baculovirus/Sf9 generated hAR extracts with 3H-DHT tracer. To be noted: hAR extract, 1 nM 3H-DHT, one hour at 4° C, mean of multiple tests. In a few lines: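 Baculovirus/Sf9-expressed hAR extract incubated with hydroxylapatite, 1 nM 3H-DHT and decreasing compound concentrations for 1 h at 4 °C, then washed three times to remove unbound tracer. Bound 3H-DHT compared with no-competitor maximum; affinity given as concentration inhibiting half of maximum binding, mean of multiple tests.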

The mark [2] stands for this setting: MDA-MB453-MMTV clone 54-19, inhibition of 100 pM DHT induction, 17 hr; mean of multiple tests; read-out: AR Cell IC50.
Setting [3] is: read-out: AR Cell IC50; MDA-MB453-MMTV clone 54-19, inhibition of 100 pM DHT induction, 17 hr; mean of multiple tests.

Each structure is given as a SMILES string. Changes are numbered by the printed parent chain. Read-outs that look alike come from different tables or passages of the source. A value given as a limit tells only on which side of the number the result lay.

On to `CC(C)CC(Oc1ccc(C#N)c(C(F)(F)F)c1)C(=O)NCc1cccs1` (centres unmarked) [Example 12, 2-(4-Cyano-3-trifluoromethyl-phenoxy)-4-methyl-pentanoic acid (thiophen-2-yl-methyl)-amide], for which the IC50 at androgen receptor (setting [2]) was > 1000 nM; in test [1] (read-out: AR Binding IC50), 86 nM.
In the case of `CCC(Oc1ccc(C#N)c(C(F)(F)F)c1)C(=O)NCc1ccccc1` (centres unmarked) [Example 93, N-Benzyl-2-(4-Cyano-3-trifluoromethyl-phenoxy)-butyramide], the figures for the IC50 (at androgen receptor (setting [2]); in test [1] (AR Binding IC50 (nM))) were 563 nM and 485 nM, respectively.
As to `CCCC(Oc1ccc(C#N)c(C(F)(F)F)c1)C(=O)NCCc1cccc(OC)c1` (centres unmarked) [Example 64, 2-(4-Cyano-3-trifluoromethyl-phenoxy)-pentanoic acid-[2-(3-methoxy-phenyl)ethyl]-amide], the figures for the half-inhibitory concentration (IC50) (on androgen receptor (setting [2]); in test [1] (read-out: AR Binding IC50)) were > 1000 nM and 220 nM, respectively.
With `CC(C)C[C@@H](Oc1ccc(C#N)c(C(F)(F)F)c1)C(=O)NCCc1ccc(O)cc1` [Example 111], the IC50 on androgen receptor (setting [2]) was 164 nM; in test [1] (read-out: AR Binding IC50), 148 nM.
The like results for `CC(C)CC(Oc1ccc(C#N)c(C(F)(F)F)c1)C(=O)NCCc1ccc(O)cc1` (centres unmarked) [Example 61, 2-(4-Cyano-3-trifluoromethyl-phenoxy)-4-methyl-pentanoic acid-[2-(4-hydroxyphenyl)-ethyl]-amide] were, in that order, 341 nM and 86 nM.
Take `CCCC(Oc1ccc(C#N)c(Cl)c1)C(=O)NCCc1ccc(O)cc1` (centres unmarked) [Example 103, 2-(3-Chloro-4-cyano-phenoxy)-pentanoic acid [2-(4-hydroxy-phenyl)-ethyl]-amide]: the IC50 worked out at 87 nM at androgen receptor (setting [3]) and 140 nM in test [1] (read-out: AR Binding IC50).
For the compound `CCCC(Oc1ccc(C#N)c(C(F)(F)F)c1)C(=O)NCc1ccccc1C` (centres unmarked) [Example 44, 2-(4-Cyano-3-trifluoromethyl-phenoxy)-pentanoic acid-2-methyl-benzylamide], the results for the IC50 (at androgen receptor (setting [2]); in test [1] (AR Binding IC50 (nM))) were 37 nM and 42 nM, respectively.
In the case of `COc1ccc(CNC(=O)C(CC(C)C)Oc2ccc(C#N)c(C(F)(F)F)c2)cn1` (centres unmarked) [Example 72, 2-(4-Cyano-3-trifluoromethyl-phenoxy)-4-methyl-pentanoic acid-(6-methoxy-pyridin-3-yl-methyl)-amide], the IC50 on androgen receptor (setting [2]) amounted to 251 nM; in test [1] (read-out: AR Binding IC50) it was 82 nM.
The like results for `COc1ccc(CNC(=O)C(CC(C)C)Oc2ccc(C#N)c(C(F)(F)F)c2)cc1` (centres unmarked) [Example 39, 2-(4-Cyano-3-trifluoromethyl-phenoxy)-4-methyl-pentanoic acid-4-methoxy-benzylamide] were, in that order, > 1000 nM and 42 nM.
As for `CCCC(Oc1ccc(C#N)c(C(F)(F)F)c1)C(=O)NCCc1c[nH]c2ccc(OC)cc12` (centres unmarked) [Example 97, 2-(4-Cyano-3-trifluoromethyl-phenoxy)-pentanoic acid [2-(5-methoxy-1H-indol-3-yl)-ethyl]-amide], the results for the IC50 (at androgen receptor (setting [3]); in test [1] (read-out: AR Binding IC50)) were 26 nM and 111 nM, respectively.
Consider `CCCC(Oc1ccc(C#N)c(C(F)(F)F)c1)C(=O)NCc1ccc(C)cc1C` (centres unmarked) [Example 45, 2-(4-Cyano-3-trifluoromethyl-phenoxy)-pentanoic acid-2,4-dimethyl-benzylamide], for which the IC50 at androgen receptor (setting [2]) is > 1000 nM; in test [1] (read-out: AR Binding IC50), 58 nM.
As to `CC(C)CC(Oc1ccc(C#N)c(C(F)(F)F)c1)C(=O)NCCCc1cccnc1` (centres unmarked) [Example 62, 2-(4-Cyano-3-trifluoromethyl-phenoxy)-4-methyl-pentanoic acid-(3-pyridin-3-ylpropyl)-amide], the IC50 was > 1000 nM at androgen receptor (setting [2]) and 192 nM in test [1] (read-out: AR Binding IC50).
Turning to `CCCC(Oc1ccc(C#N)c(C(F)(F)F)c1)C(=O)NCc1ccc(OC)cc1` (centres unmarked) [Example 46, 2-(4-Cyano-3-trifluoromethyl-phenoxy)-pentanoic acid-4-methoxy-benzylamide], the values for the IC50 (on androgen receptor (setting [2]); in test [1] (read-out: AR Binding IC50)) were 638 nM and 103 nM, respectively.
With `CCCC(Oc1ccc(C#N)c(Cl)c1)C(=O)NCc1ccccc1` (centres unmarked) [Example 102, 2-(3-Chloro-4-cyano-phenoxy)-pentanoic acid benzylamide], the IC50 at androgen receptor (setting [3]) was 27 nM; in test [1] (read-out: AR Binding IC50) it was 125 nM.
Take `CC(C)CC(Oc1ccc(C#N)c(C(F)(F)F)c1)C(=O)NCCOc1ccccc1` (centres unmarked) [Example 10, 2-(4-Cyano-3-trifluoromethyl-phenoxy)-4-methyl-pentanoic acid (2-phenoxyethyl)-amide]: the IC50 is > 1000 nM at androgen receptor (setting [2]) and 91 nM in test [1] (read-out: AR Binding IC50).
Take `CCC[C@H](Oc1ccc(C#N)c(Cl)c1)C(=O)NCCc1c[nH]c2ccccc12` [Example 106, (S)-2-(3-Chloro-4-cyano-phenoxy)-pentanoic acid [2-(1H-indol-3-yl)-ethyl]-amide]: the concentration for half-maximal inhibition (IC50) was 3 nM at androgen receptor (setting [2]) and 47 nM in test [1] (read-out: AR Binding IC50).

For orientation: IC50 means the concentration at which inhibition is half-maximal.
